# Calls of active or inactive are those of the source. No cut-off for these calls is given here.
# Columns and labels:
# Acetylcholinesterase = biological target: T1, Acetylcholinesterase (Mus musculus, UniProt P21836); set-up: species or system LACA
# T1 sequence (P21836 whole entry): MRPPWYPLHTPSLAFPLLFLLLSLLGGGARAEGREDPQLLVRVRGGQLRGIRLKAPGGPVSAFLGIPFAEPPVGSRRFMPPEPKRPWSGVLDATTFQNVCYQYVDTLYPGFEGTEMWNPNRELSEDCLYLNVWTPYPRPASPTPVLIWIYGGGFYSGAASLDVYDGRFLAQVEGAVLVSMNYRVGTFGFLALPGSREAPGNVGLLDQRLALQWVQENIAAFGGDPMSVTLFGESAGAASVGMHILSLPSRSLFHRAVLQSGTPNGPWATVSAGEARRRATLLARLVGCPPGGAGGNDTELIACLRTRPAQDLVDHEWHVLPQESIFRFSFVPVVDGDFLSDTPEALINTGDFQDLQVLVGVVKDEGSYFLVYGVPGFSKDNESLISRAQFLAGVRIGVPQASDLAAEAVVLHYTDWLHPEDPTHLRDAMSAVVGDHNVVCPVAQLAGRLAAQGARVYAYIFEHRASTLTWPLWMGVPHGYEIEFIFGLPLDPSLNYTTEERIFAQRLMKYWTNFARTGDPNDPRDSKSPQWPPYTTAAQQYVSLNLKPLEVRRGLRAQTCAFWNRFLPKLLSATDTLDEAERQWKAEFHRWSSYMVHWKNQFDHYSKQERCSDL
# Mus musculus [1] = experiment: Cognition enhancing effect in albino mouse assessed as reversal of scopolamine-induced memory deficit by measuring basal latency time at 0.5 mg/kg, ip treated 5 mins post scopolamine challenge by step down passive avoidance test (reference value: 63.93 +/- 2.6 sec); assay type: functional
# Mus musculus [2] = experiment: Cognition enhancing effect in albino mouse assessed as reversal of scopolamine-induced memory deficit by measuring latency time at 0.5 mg/kg, ip treated 5 mins post scopolamine challenge by step down passive avoidance test (reference value: 68.16 +/- 0.4 sec); assay type: functional
# Mus musculus [3] = experiment: Cognition enhancing effect in albino mouse assessed as reversal of scopolamine-induced memory deficit by measuring reduction in number of mistake at 0.5 mg/kg, ip treated 5 mins post scopolamine challenge by step down passive avoidance test; assay type: functional, organism-based
# [4] = biological target: T2, Acetylcholinesterase (Mus musculus) (UniProt P21836); conditions: Brain, at 1 µM
# T2 sequence (whole entry): T1 sequence (P21836 whole entry)
# [5] = biological target: T2, Acetylcholinesterase (Mus musculus); conditions: Brain, at 5 µM
# [6] = biological target: T2, Acetylcholinesterase (Mus musculus); conditions: Brain, at 10 µM
# [7] = biological target: T2, Acetylcholinesterase (Mus musculus); conditions: Brain, at 25 µM
# [8] = biological target: T2, Acetylcholinesterase (Mus musculus); conditions: Brain, at 50 µM
# [9] = biological target: T2, Acetylcholinesterase (Mus musculus); experiment: Inhibition of AchE in albino LACA mouse brain at 10^-3 M using acetylthiocholine iodide as substrate incubated for 10 mins measured for 2 mins by Ellman's method relative to control
SMILES,IC50 (Acetylcholinesterase),Time (Mus musculus [1]),Time (Mus musculus [2]),Activity (Mus musculus [3]),inhibition [4],inhibition [5],inhibition [6],inhibition [7],inhibition [8],inhibition [9]
O=C(Oc1cccc(/C=C2\Cc3ccccc3C2=O)c1)c1cccc(OC(F)(F)F)c1,12.3 µM,27.67 s,12.01 s,Active,73.6%,72.1%,64.6%,91.7%,78.2%,–
COc1cc2c(cc1OC)C(=O)C(CC1CCN(CC(=O)Cc3nc4cc(OC)c(OC)cc4s3)CC1)C2 (stereo not given),–,–,–,–,–,–,–,–,–,3.2%
COc1cc2c(cc1OC)C(=O)C(CC1CCN(CC(=O)Nc3ccc(F)cc3)CC1)C2 (stereo not given),–,–,–,–,–,–,–,–,–,6.19%
COc1cc2c(cc1OC)C(=O)C(CC1CCN(CC(=O)Nc3ccc(Cl)cc3)CC1)C2 (stereo not given),–,–,–,–,–,–,–,–,–,2.74%
COc1cc2c(cc1OC)C(=O)C(CC1CCN(CC(=O)Cc3nc4ccccc4s3)CC1)C2 (stereo not given),–,–,–,–,–,–,–,–,–,4.62%
O=C(Oc1cccc(/C=C2\Cc3ccccc3C2=O)c1)c1ccc(F)cc1,40.6 µM,22.06 s,9.9 s,Active,33.9%,35.5%,38.7%,51.6%,54.8%,–
O=C(Oc1cccc(/C=C2\Cc3ccccc3C2=O)c1)c1ccc(CCl)cc1,79.7 µM,14.82 s,8.11 s,Active,67.6%,66.1%,65.3%,56.3%,53.3%,–
O=C(Oc1cccc(/C=C2\Cc3ccccc3C2=O)c1)c1ccc([N+](=O)[O-])cc1,48.8 µM,14.23 s,7.98 s,Active,72.1%,68.3%,65.3%,60.8%,51%,–
COc1cc2c(cc1OC)C(=O)C(CC1CCN(CC(=O)Nc3ccc(C)cc3)CC1)C2 (stereo not given),–,–,–,–,–,–,–,–,–,13.9%
O=C(Oc1cccc(/C=C2\Cc3ccccc3C2=O)c1)c1ccccc1,34.3 µM,16.01 s,10.01 s,Active,30.6%,27.4%,37.1%,48.4%,67.7%,–
O=C(Oc1cccc(/C=C2\Cc3ccccc3C2=O)c1)c1cc(C(F)(F)F)cc(C(F)(F)F)c1,12 µM,12.63 s,6.98 s,Active,38.7%,46.8%,53.2%,59.7%,67.7%,–
O=C(Oc1cccc(/C=C2\Cc3ccccc3C2=O)c1)c1cccc(CCl)c1,27.1 µM,20.86 s,11.65 s,Active,75.9%,70.6%,56.3%,72.9%,59.3%,–
COc1ccc2nc(CC(=O)CN3CCC(CC4Cc5cc(OC)c(OC)cc5C4=O)CC3)sc2c1 (stereo not given),–,–,–,–,–,–,–,–,–,3.72%
COc1cc2c(cc1OC)C(=O)C(CC1CCN(CC(=O)Cc3nc4ccc(C)cc4s3)CC1)C2 (stereo not given),–,–,–,–,–,–,–,–,–,5.82%
COc1ccc(C(=O)Oc2cccc(/C=C3\Cc4ccccc4C3=O)c2)cc1,38.9 µM,14.82 s,7.11 s,Active,30.6%,32.2%,33.9%,41.9%,48.4%,–
COc1ccc(NC(=O)CN2CCC(CC3Cc4cc(OC)c(OC)cc4C3=O)CC2)cc1OC (stereo not given),–,–,–,–,–,–,–,–,–,7.33%
O=C(Oc1cccc(/C=C2\Cc3ccccc3C2=O)c1)c1ccccc1F,14.1 µM,13.72 s,5.9 s,Active,80.4%,48.8%,40.5%,35.2%,32.9%,–
COc1cc2c(cc1OC)C(=O)C(CC1CCN(Cc3ccccc3)CC1)C2 (stereo not given) [DONEPEZIL],–,17.67 s,11.52 s,Active,–,–,–,–,–,–
COc1cc2c(cc1OC)C(=O)C(CC1CCN(CC(=O)Cc3nc4ccc([N+](=O)[O-])cc4s3)CC1)C2 (stereo not given),–,–,–,–,–,–,–,–,–,5.9%
COc1ccc(NC(=O)CN2CCC(CC3Cc4cc(OC)c(OC)cc4C3=O)CC2)cc1 (stereo not given),–,–,–,–,–,–,–,–,–,12.8%
COc1cc2c(cc1OC)C(=O)C(CC1CCN(CC(=O)Cc3nc4ccc(F)cc4s3)CC1)C2 (stereo not given),–,–,–,–,–,–,–,–,–,1.24%
O=C(Oc1cccc(/C=C2\Cc3ccccc3C2=O)c1)c1cc(Cl)cc(Cl)c1,43.3 µM,19.86 s,12.65 s,Active,37%,41.9%,33.9%,43.5%,51.6%,–
COc1cc2c(cc1OC)C(=O)C(CC1CCN(CC(=O)Nc3ccc([N+](=O)[O-])cc3)CC1)C2 (stereo not given),–,–,–,–,–,–,–,–,–,8.67%
COc1cc(C(=O)Oc2cccc(/C=C3\Cc4ccccc4C3=O)c2)cc(OC)c1OC,14.1 µM,13.81 s,6.08 s,Active,69.1%,32.2%,72.1%,78.9%,32.9%,–
COc1cc2c(cc1OC)C(=O)C(CC1CCN(CC(=O)Cc3nc4ccc(Cl)cc4s3)CC1)C2 (stereo not given),–,–,–,–,–,–,–,–,–,2.13%
